# According to ChEMBL document CHEMBL1148830, “Discovery and investigation of antiproliferative and apoptosis-inducing properties of new heterocyclic podophyllotoxin analogues accessible by a one-step multicomponent synthesis” (2007):
# Active and inactive are the calls of the source. The calls are words filed in the database; no cut-off is given here.
# Key:
# [1] = system: Jurkat; test: Effect on apoptosis in Jurkat cells assessed as cleavage of PARP at 1 uM; format: functional, cell-based; conditions: Homo sapiens
# [2] = system: Jurkat; test: Effect on apoptosis in Jurkat cells assessed as cleavage of procaspase 3 to active enzyme at 1 uM; format: functional, cell-based; conditions: Homo sapiens
# [3] = system: Jurkat; test: Increase in caspase 3 activation in Jurkat cells at 1 uM; format: functional, cell-based; conditions: Homo sapiens
# [4] = Antiproliferative activity against human MCF7/AZ cells assessed as cell viability at 50 uM after 48 hrs by MTT assay; format: functional; conditions: read-out: Activity
# [5] = system: Jurkat; test: Antiproliferative activity against human Jurkat cells assessed as cell viability at 5 uM after 48 hrs by MTT assay; format: functional; conditions: read-out: Activity
# [6] = system: Jurkat; test: Induction of apoptosis in Jurkat cells after 24 hrs by flow cytometric Annexin-V/propidium iodide assay; format: functional, cell-based; conditions: Homo sapiens
# [7] = system: HeLa; test: Antiproliferative activity against HeLa cells assessed as cell viability at 5 uM after 48 hrs by MTT assay relative to control; format: functional; conditions: Homo sapiens, read-out: Activity
# [8] = system: Jurkat; test: Antiproliferative activity against human Jurkat cells assessed as cell viability at 50 uM after 48 hrs by MTT assay; format: functional; conditions: read-out: Activity
# [9] = system: HeLa; test: Growth inhibition of HeLa cells after 48 hrs by MTT assay; format: functional; conditions: Homo sapiens
# [10] = system: Lymphocyte; test: Induction of apoptosis in human whole blood lymphocytes after 24 hrs by flow cytometric Annexin-V/propidium iodide assay; format: functional, cell-based
# [11] = Antiproliferative activity against human MCF7/AZ cells assessed as cell viability at 5 uM after 48 hrs by MTT assay relative to control; format: functional; conditions: read-out: Activity
# [12] = system: Jurkat; test: Effect on apoptosis in Jurkat cells assessed as DNA laddering after 24 hrs at 1 uM; format: functional, cell-based; conditions: Homo sapiens
# [13] = system: HeLa; test: Antiproliferative activity against HeLa cells assessed as cell viability at 50 uM after 48 hrs by MTT assay; format: functional; conditions: Homo sapiens, read-out: Activity
# [14] = system: Jurkat; test: Induction of apoptosis in Jurkat cells assessed as cell viability at 50 uM after 48 hrs by flow cytometry Annexin-V/propidium iodide assay; format: functional; conditions: Homo sapiens, read-out: Activity
# [15] = system: Jurkat; test: Induction of apoptosis in Jurkat cells assessed as cell viability at 5 uM after 48 hrs by flow cytometry Annexin-V/propidium iodide assay; format: functional; conditions: Homo sapiens, read-out: Activity
# [16] = system: Jurkat; test: Increase in caspase 3 activation in Jurkat cells at 5 uM; format: functional
# [17] = system: Jurkat; test: Effect on apoptosis in Jurkat cells assessed as cleavage of PARP at 5 uM; format: functional, cell-based; conditions: Homo sapiens
# [18] = system: Jurkat; test: Effect on apoptosis in Jurkat cells assessed as cleavage of procaspase 3 to active enzyme at 5 uM; format: functional, cell-based; conditions: Homo sapiens
# [19] = system: Jurkat; test: Effect on apoptosis in Jurkat cells assessed as DNA laddering after 24 hrs; format: functional, cell-based; conditions: Homo sapiens
Compound,Activity [1],Activity [2],Activity [3],viability at 50 µM [4] [%],viability at 5 µM [5] [%],Activity [6],viability at 5 µM [7] [%],viability at 50 µM [8] [%],GI50 [9] [µM],Activity [10],viability at 5 µM [11] [%],Activity [12],viability at 50 µM [13] [%],viability at 50 µM [14] [%],viability at 5 µM [15] [%],Activity ([16]; Homo sapiens),Activity [17],Activity [18],Fold change [16],Activity [19]
CC[C@]1(O)C[C@@H]2CN(CCc3c([nH]c4ccccc34)[C@@](C(=O)OC)(c3cc4c(cc3OC)N(C)[C@H]3[C@@](O)(C(=O)OC)[C@H](OC(C)=O)[C@]5(CC)C=CCN6CC[C@]43[C@@H]65)C2)C1,Active,Active,Active,,,,,,,,,,,,,,,,,
COc1cc([C@@H]2c3cc4c(cc3[C@@H](O[C@@H]3O[C@@H]5CO[C@@H](C)O[C@H]5[C@H](O)[C@H]3O)[C@H]3COC(=O)[C@H]23)OCO4)cc(OC)c1O [ETOPOSIDE],,,,57,75,Active,91,50,8,inactive,76,inactive,15,61,4,,,,,
COc1cc([C@@H]2c3cc4c(cc3[C@H](O)[C@H]3COC(=O)[C@H]23)OCO4)cc(OC)c1OC [PODOFILOX],,,,,18,Active,19,,0.02,inactive,55,,,,54,Active,Active,Active,,
Cc1n[nH]c2c1C(c1c(C)nc3sccn13)C1=C(COC1=O)N2 (stereo unspecified),,,,,85,,84,,,,100,,,,7,,inactive,,,
COc1cc(C2C3=C(COC3=O)Nc3[nH]nc(C)c32)cc(OC)c1OC (stereo unspecified),,,,,47,Active,50,,5,inactive,58,,,,55,,Active,Active,3,Active
